# Laboratory results as given in article PMC7912796, “Design, Synthesis, Anticancer Activity, and Solid Lipid Nanoparticle Formulation of Indole- and Benzimidazole-Based Compounds as Pro-Apoptotic Agents Targeting Bcl-2 Protein” (Pharmaceuticals, 2021).
# What was measured:
# Format in all cases: cell-based, human
# [1] = test system: A549/lung adenocarcinoma cells; assay: MTT-cell proliferation assay; conditions: Homo sapiens, A549, 48 h drug exposure, mean of three experiments ± SEM
# From the text: (§1) The potential anti-cancer activity of all fourteen final synthesized compounds was investigated through MTT cytotoxic assay against two different human solid cancerous cell lines; A549/lung and MDA-MB-231/breast adenocarcinoma. The adopted cell-proliferation assay assessed % cell viability in relation to the reducing activity of cellular NADPH-dependent cellular oxidoreductases on tetrazolium dye, MTT [2,5-diphenyl-3-(4,5-dimethylthiazol-2-yl)tetrazolium bromide salt], for furnishing an easily quantified insoluble chromogenic formazan. For each drug concentration, 0.1, 1, 10, and 100 μM, the % cell-viability was estimated relative to negative control following a complete 48 h of drug treatment. Both 5-fluorouracil (5-FU) and doxorubicin (DOX) were set as positive index comparators. Moreover, the safety profile of the synthesized compounds was further investigated by examining their in-vitro cytotoxicity on non-cancerous cell line; MDCK/kidney cells.
# (§2) Evaluating the cytotoxicity of tested compounds on two cancer cell lines (A549/lung and MDA-MB-231/breast adenocarcinoma) and non-cancerous (MDCK/kidney cells) was performed while adopting the formerly described method with small alterations. Cancer cell lines were propagated within Dulbecco’s Modified Eagle Medium-High Glucose (Cat.#: P0103; DMEM_High Glucose with Na.Pyruvate and stable Glutamine, Biowest^TM, Nuaillé, France), while MDA-MB-231 cells were propagated within RPMI-1640 L-Glutamine medium (Cat.#:12-604F; Lonza-Verviers SPRL^TM, Verviers, Belgium). The culturing media were supplemented via 1% antibiotic-antimycotic 100X (Cat.#: L0010; Biowest^TM, Nuaillé, France) and 10% fetal bovine serum (FBS) (Cat.#: EU-000-H; Seralab^TM, West Sussex, UK). Cells were seeded as triplicates within 96-well plate, at 1 × 10^4 cells per well density, after being counted and viability checked using the trypan blue staining solution (Cat.# ab233465; Abcam^TM, Cambridge, MA, USA). Seeded cells were permitted to adhere for 24 h under 5% CO2 and at 37 °C incubating conditions. The assigned compounds were dissolved in 500 µL DMSO affording the stock solution (100 mM) being ready for more diluting within the whole medium to obtain the compound’s final concentrations; 0.1, 1, 10, 100 µM for cell treatments. […] Following 24 h compound-cell treatment, the medium was substituted by fresh one and cells were permitted to develop for 48 h. At four hours prior the end of incubation, 10 μL MTT Sigma-Aldrich^TM (5 mg/mL in PBS 1X without magnesium and calcium; Cat.# 17-516F, Lonza-Verviers^TM, Basel, Switzerland) were added to all wells. Following the complete 48 h incubation, 100 μL DMSO was all added to all wells where they were subsequently centrifuged at 4000 rpm for 5 min allowing the formazan crystals of formazan to precipitate. Color was established and intensities were recorded at 490 nm using Synergy-Neo2® Hybrid MultiMode Plate Reader (BioTek^TM, Winooski, VT, USA), while subtracting the multi-well plates background absorbance at 690 nm. Percentage cell viability was estimated using the subsequent formula: % cell-viability = (average absorbance of treated wells/average absorbance of controls) × 100.
# [2] = test system: MDA-MB-231/breast cancer cells; assay: MTT-cell proliferation assay; conditions: 48 h drug exposure, mean of three experiments ± SEM
# From the text: as §1, §2
# BAX gene = assay: RT-PCR apoptotic gene expression; conditions: 13 μM, 48 h, MDA-MB-231, vs negative control
# Description: (§3) Dissection of the compound’s proapoptotic activity was proceeded through gene expression analysis for key genes, controlling apoptosis pathway, as well as protein level determination. Following 8b treatment for 48 h, alterations within MDA-MB-231/breast cancer cell expression of Bcl-2, Bax, caspase-3, -8, and -9 genes, as well as cytochrome c and class-III β-tubulin proteins levels were determined using real-time polymerase chain reaction (RT-PCR) or ELISA technique, respectively. Typically, Bcl-2, Bax, caspases, and cytochrome c proteins contributes within the regulation of apoptotic signaling. Acting as apoptotic activator (Bax) or inhibitor (Bcl-2), the Bcl-2 family proteins play their significant role in apoptosis. The caspases family are cysteine proteases being classified as either executioners; caspase-3, -6, or -7 or initiators; caspase-8 and -9 [36]. Regrading caspase-8, its activation is proceeded through extrinsic death-receptor dependent apoptotic pathway, while, caspase-9 activation is within the event of intrinsic mitochondrial cytochrome c leakage. Additionally, participation of activated caspase-3 is to be essential for […] activation. Class-III β-tubulin are pure prognostic biomarker within cancer patients being associated with aggressive phenotypic/drug-resistant cancers and part of complicated pro-survival molecular pathway, being triggered via poor nutrient supply and hypoxia.
# (§4) Quantitative Real-time PCR was operated on Rotor-Gene Q® PCR system as a reader (Cat.#: 204774; Qiagen^TM, Milan, Italy) via GenElute® RNA extraction/SIGMA PCR kit (Cat.#: REI10; Qiagen^TM, Milan, Italy)^86. Cells were treated with IC50 of 8b for 48 h and total RNA was extracted from the non-treated and treated cells. RNA purity was assessed via Nanodrop® 2000/2000c UV-Vis spectrophotometer (Thermo-Scientific^TM, Bilbao, Spain). Synthesis of cDNA was proceeded using QuantiNova® Reverse Transcription Kit (Cat.#: RTN30; Qiagen^TM, Milan, Italy) and the subsequent PCR tests were conducted via single tubes. Specific forward/reverse primer pairs were selected for investigated (Casp-3, -8, -9, BAX, and Bcl2). Obtained results were expressed within Cycle threshold (Ct) values, while relative quantitation of each measured gene was assessed based on ΔΔCt calculations as represented in Table 5 [79].
# Bcl-2 gene = assay: RT-PCR apoptotic gene expression; conditions: 13 μM, 48 h, MDA-MB-231, vs negative control
# Description: as §3, §4
# Caspase-3 gene = assay: RT-PCR apoptotic gene expression; conditions: 13 μM, 48 h, MDA-MB-231, vs negative control
# Description: as §3, §4
# Caspase-8 gene = assay: RT-PCR apoptotic gene expression; conditions: 13 μM, 48 h, MDA-MB-231, vs negative control
# Description: as §3, §4
# Caspase-9 gene = assay: RT-PCR apoptotic gene expression; conditions: 13 μM, 48 h, MDA-MB-231, vs negative control
# Description: as §3, §4
# [3] = test system: Bax/Bcl-2 gene expression ratio; assay: RT-PCR Bax/Bcl-2 gene expression ratio; conditions: 13 μM, 48 h, MDA-MB-231; control 1
# Description: Dissection of the compound’s proapoptotic activity was proceeded through gene expression analysis for key genes, controlling apoptosis pathway, as well as protein level determination. Following 8b treatment for 48 h, alterations within MDA-MB-231/breast cancer cell expression of Bcl-2, Bax, caspase-3, -8, and -9 genes, as well as cytochrome c and class-III β-tubulin proteins levels were determined using real-time polymerase chain reaction (RT-PCR) or ELISA technique, respectively. Typically, Bcl-2, Bax, caspases, and cytochrome c proteins contributes within the regulation of apoptotic signaling. Acting as apoptotic activator (Bax) or inhibitor (Bcl-2), the Bcl-2 family proteins play their significant role in apoptosis. The caspases family are cysteine proteases being classified as either executioners; caspase-3, -6, or -7 or initiators; caspase-8 and -9 [36]. […]
# Quantitative Real-time PCR was operated on Rotor-Gene Q® PCR system as a reader (Cat.#: 204774; Qiagen^TM, Milan, Italy) via GenElute® RNA extraction/SIGMA PCR kit (Cat.#: REI10; Qiagen^TM, Milan, Italy)^86. […] RNA purity was assessed via Nanodrop® 2000/2000c UV-Vis spectrophotometer (Thermo-Scientific^TM, Bilbao, Spain). […] Obtained results were expressed within Cycle threshold (Ct) values, while relative quantitation of each measured gene was assessed based on ΔΔCt calculations as represented in Table 5 [79].
# class-III β-tubulin = assay: ELISA protein level; conditions: 48 h
# Description: as §3, with “Class-III β-tubulin are pure prognostic biomarker within cancer patients being associated with aggressive phenotypic/drug-resistant cancers and part of complicated pro-survival molecular pathway, being triggered via poor nutrient supply and hypoxia.” left out
smiles,measurement,setting,value
"CCCc1ccc(-c2nn(-c3ccccc3)cc2C=NNC(=O)c2cc3ccccc3[nH]2)cc1 [Compound 8b, N′-((1-phenyl-3-(4-propylphenyl)-1H-pyrazol-4-yl)methylene)-1H-indole-2-carbohydrazide]",IC50,[1],23.1 ± 1.45 µM
same,IC50,[2],12.7 ± 2.48 µM
same,IC50,"[2]; Homo sapiens, MDA-MB-231, 48 h",~13 µM
same,BAX gene expression,BAX gene,3.61 folds
same,Bcl-2 gene expression,Bcl-2 gene,0.165 folds
same,Caspase-3 gene expression,Caspase-3 gene,4.28 folds
same,Caspase-8 gene expression,Caspase-8 gene,1.53 folds
same,Caspase-9 gene expression,Caspase-9 gene,7.65 folds
same,Bax/Bcl expression ratio,[3],21.88
same,class-III β-tubulin level,"class-III β-tubulin; 13 μM, MDA-MB-231, control 0.73 ng/mL",0.23 ng/mL
same,inhibition at 13 µM,"class-III β-tubulin; Homo sapiens, MDA-MB-231, vs control",68.4%
